According to ChEMBL document CHEMBL1201862, “PubChem BioAssay data set” (2004):
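Test compounds were applied to cells in 96-well plates for 48 hours at 5 doses. Here, GI50 denotes the concentration required for 50% inhibition of growth.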 Active and inactive are the calls of the source. Cut-off read from the data, not from the text of the source: active = GI50 up to about 1.1 µM and inactive = higher.

Columns and labels:
Test in all cases: NCI tumour cell line growth inhibition, 48 h
A498 = test system: A498
ACHN = test system: ACHN
COLO 205 = test system: COLO 205
HCC 2998 = test system: HCC 2998
HCT-116 = test system: HCT-116
HOP-62 = test system: HOP-62
Hs-578T = test system: Hs-578T
K562 = test system: K562
LOX IMVI = test system: LOX IMVI
M14 = test system: M14
MCF7 = test system: MCF7
NCI-H23 = test system: NCI-H23
NCI-H460 = test system: NCI-H460
NCI/ADR-RES = test system: NCI/ADR-RES
OVCAR-4 = test system: OVCAR-4
PC-3 = test system: PC-3
RXF 393 = test system: RXF 393
SF-268 = test system: SF-268
SF-295 = test system: SF-295
SN12C = test system: SN12C

Measured: GI50

C[C@@H](c1ccccc1)N1C[C@@H](c2ccc3c(c2)OCO3)[C@@H]2C(=O)CCC[C@@H]21
inactive: A498 28.6 µM | ACHN 35.2 µM | COLO 205 20.6 µM | HCC 2998 30.1 µM | HCT-116 43.8 µM | HOP-62 > 100 µM | Hs-578T 72.9 µM | K562 64.1 µM | LOX IMVI 69 µM | M14 19.5 µM | MCF7 27.8 µM | NCI-H23 61.8 µM | NCI-H460 54.5 µM | NCI/ADR-RES 81.7 µM | OVCAR-4 43.8 µM | PC-3 59.2 µM | RXF 393 88.5 µM | SF-268 96.8 µM | SF-295 79.3 µM | SN12C 59.8 µM

CCNCCNC(=O)c1ccc(Br)cc1
inactive: A498 > 100 µM | ACHN > 100 µM | HCC 2998 > 100 µM | Hs-578T > 100 µM | K562 > 100 µM | LOX IMVI > 100 µM | M14 > 100 µM | MCF7 > 100 µM | NCI-H23 > 100 µM | NCI-H460 > 100 µM | NCI/ADR-RES > 100 µM | OVCAR-4 > 100 µM | PC-3 > 100 µM | RXF 393 > 100 µM | SF-268 > 100 µM | SN12C > 100 µM

Nc1nc(Cl)c(Cl)c(NCC2(O)CCC2)n1
inactive: A498 11.4 µM | ACHN > 100 µM | HCC 2998 88.3 µM | HCT-116 57.3 µM | HOP-62 92.3 µM | Hs-578T 51.3 µM | K562 24.7 µM | LOX IMVI 28.5 µM | MCF7 74.1 µM | NCI-H23 38.9 µM | NCI-H460 > 100 µM | NCI/ADR-RES 45 µM | OVCAR-4 19 µM | PC-3 > 100 µM | RXF 393 38.4 µM | SF-268 > 100 µM | SF-295 43.9 µM | SN12C > 100 µM

O=c1oc2cccnc2n1CCN1CCN(c2ccc(Oc3ccccc3)cc2)CC1
inactive: A498 40.9 µM | ACHN 35 µM | HCC 2998 52.8 µM | HCT-116 33.6 µM | HOP-62 > 100 µM | Hs-578T > 100 µM | K562 12.4 µM | LOX IMVI > 100 µM | M14 89.7 µM | MCF7 > 100 µM | NCI-H23 > 100 µM | NCI-H460 77.8 µM | NCI/ADR-RES 32.5 µM | OVCAR-4 15.7 µM | PC-3 34.4 µM | RXF 393 > 100 µM | SF-268 > 100 µM | SF-295 43 µM

COc1ccc(CNc2nc(NCc3ccc(OC)cc3)nc(NC(C)C)n2)cc1
inactive: A498 4.79 µM | ACHN 8.02 µM | COLO 205 9.57 µM | HCC 2998 28.6 µM | HCT-116 3.18 µM | HOP-62 6.56 µM | Hs-578T 13.5 µM | K562 6.98 µM | LOX IMVI 6.89 µM | M14 3.61 µM | MCF7 1.77 µM | NCI-H23 5.21 µM | NCI-H460 3.66 µM | NCI/ADR-RES 4.58 µM | OVCAR-4 20.3 µM | PC-3 3.3 µM | RXF 393 7.08 µM | SF-268 9.02 µM | SF-295 3.96 µM

Cc1c(-c2ccc(O)c(O)c2)oc(=O)c2c(O)cccc12
inactive: A498 15 µM | ACHN 20 µM | COLO 205 9.71 µM | HCC 2998 10.4 µM | HCT-116 6.56 µM | HOP-62 10.7 µM | Hs-578T 3.03 µM | K562 4.85 µM | M14 8.05 µM | MCF7 6.68 µM | NCI-H23 10.3 µM | NCI-H460 11.6 µM | NCI/ADR-RES 10.5 µM | OVCAR-4 11.7 µM | PC-3 12.9 µM | RXF 393 12.4 µM | SF-268 9.1 µM | SF-295 17.7 µM | SN12C 5.27 µM

COc1ccc2nc(-c3ccccc3)c(=O)[nH]c2c1
inactive: A498 > 100 µM | ACHN > 100 µM | COLO 205 > 100 µM | HCC 2998 > 100 µM | HCT-116 > 100 µM | HOP-62 > 100 µM | Hs-578T > 100 µM | K562 > 100 µM | LOX IMVI > 100 µM | M14 > 100 µM | MCF7 > 100 µM | NCI-H23 > 100 µM | NCI-H460 > 100 µM | NCI/ADR-RES > 100 µM | PC-3 > 100 µM | RXF 393 > 100 µM | SF-268 > 100 µM | SF-295 > 100 µM | SN12C > 100 µM

COC(=O)[C@@H]1[C@H](OC(C)=O)CCC2[C@@]3(C[C@@H](c4ccoc4)O[C@@H]3OC)[C@H](C)CC[C@]21C(=O)OC (stereo partly specified)
inactive: A498 > 25 µM | ACHN > 25 µM | COLO 205 > 25 µM | HCC 2998 > 25 µM | HCT-116 > 25 µM | Hs-578T > 25 µM | K562 > 25 µM | LOX IMVI > 25 µM | M14 > 25 µM | MCF7 > 25 µM | NCI-H23 > 25 µM | NCI-H460 > 25 µM | NCI/ADR-RES > 25 µM | OVCAR-4 > 25 µM | PC-3 > 25 µM | RXF 393 > 25 µM | SF-268 > 25 µM | SF-295 > 25 µM | SN12C > 25 µM

O=C(Nc1ccc(Br)cc1)c1c(-c2ccccc2)c2ccc(O)cc2oc1=O
inactive: A498 > 10 µM | ACHN > 10 µM | COLO 205 > 10 µM | HCC 2998 > 10 µM | HOP-62 > 10 µM | Hs-578T > 10 µM | K562 > 10 µM | LOX IMVI > 10 µM | M14 > 10 µM | MCF7 > 10 µM | NCI-H23 > 10 µM | NCI-H460 > 10 µM | NCI/ADR-RES > 10 µM | OVCAR-4 > 10 µM | PC-3 > 10 µM | RXF 393 > 10 µM | SF-268 > 10 µM | SF-295 > 10 µM | SN12C > 10 µM

NC1CC(=O)c2ccccc21 (stereo unspecified)
inactive: A498 > 100 µM | ACHN > 100 µM | COLO 205 > 100 µM | HCC 2998 > 100 µM | HCT-116 > 100 µM | HOP-62 > 100 µM | Hs-578T > 100 µM | K562 > 100 µM | LOX IMVI > 100 µM | M14 > 100 µM | MCF7 > 100 µM | NCI-H23 > 100 µM | NCI/ADR-RES > 100 µM | OVCAR-4 > 100 µM | PC-3 > 100 µM | RXF 393 > 100 µM | SF-268 > 100 µM | SF-295 > 100 µM | SN12C > 100 µM

O=C1/C(=C/c2c(Cl)[nH]c3ccccc23)c2ccccc2N1c1ccccc1
inactive: A498 10.4 µM | ACHN 7.01 µM | COLO 205 1.79 µM | HCC 2998 8.97 µM | HCT-116 4.6 µM | HOP-62 4.94 µM | Hs-578T 3.9 µM | K562 4.1 µM | LOX IMVI 3.66 µM | M14 3.93 µM | MCF7 4.02 µM | NCI-H23 5.32 µM | NCI-H460 3.59 µM | NCI/ADR-RES 2.24 µM | PC-3 4.28 µM | RXF 393 11.9 µM | SF-268 5.52 µM | SF-295 2.44 µM | SN12C 6.19 µM

CC(C)(/N=N/C(C)(C)C1=NCCN1)C1=NCCN1
inactive: A498 > 100 µM | ACHN > 100 µM | COLO 205 > 100 µM | HCC 2998 > 100 µM | HCT-116 > 100 µM | HOP-62 > 100 µM | Hs-578T > 100 µM | K562 > 56.5 µM | LOX IMVI > 66.1 µM | M14 > 85.9 µM | MCF7 > 69.5 µM | NCI-H460 > 100 µM | NCI/ADR-RES > 100 µM | OVCAR-4 > 100 µM | PC-3 > 100 µM | RXF 393 > 100 µM | SF-268 > 100 µM | SF-295 > 100 µM | SN12C > 78.5 µM

COc1ccc2c(c1)[C@@]13CCN4CC5=CCO[C@H]6CC(=O)N2[C@H]1[C@H]6[C@H]5C[C@H]43
inactive: A498 69.2 µM | ACHN > 100 µM | COLO 205 84.9 µM | HCC 2998 > 100 µM | HCT-116 > 100 µM | HOP-62 > 100 µM | Hs-578T 33.7 µM | LOX IMVI > 100 µM | M14 > 100 µM | MCF7 > 100 µM | NCI-H23 > 100 µM | NCI-H460 > 100 µM | NCI/ADR-RES 47.2 µM | OVCAR-4 > 100 µM | PC-3 > 100 µM | RXF 393 > 100 µM | SF-268 > 100 µM | SF-295 70 µM | SN12C > 100 µM

C/C=C/[C@H](O[Si](C)(C)C(C)(C)C)[C@@H](O)/C=C/C(=O)OCC
inactive: A498 30.3 µM | ACHN 16.6 µM | COLO 205 20.1 µM | HCC 2998 16.4 µM | HCT-116 17.9 µM | HOP-62 17 µM | Hs-578T 29.9 µM | K562 21.7 µM | LOX IMVI 17.5 µM | MCF7 21.1 µM | NCI-H23 38.7 µM | NCI-H460 15.9 µM | NCI/ADR-RES 26.8 µM | OVCAR-4 11.9 µM | PC-3 33.3 µM | RXF 393 21.8 µM | SF-268 24 µM | SF-295 20.9 µM | SN12C 23.1 µM

CC(=O)Oc1ccc2[nH]c3c(C)c4cccc-4ccc3c2c1
inactive: A498 2.1 µM | ACHN 1.79 µM | HCC 2998 2.18 µM | HCT-116 2.07 µM | HOP-62 2.29 µM | Hs-578T 2.64 µM | K562 3.79 µM | LOX IMVI 2.18 µM | M14 2.17 µM | MCF7 2.65 µM | NCI-H23 1.99 µM | NCI-H460 2.94 µM | NCI/ADR-RES 2.28 µM | OVCAR-4 1.84 µM | PC-3 1.87 µM | RXF 393 1.82 µM | SF-268 2.02 µM | SF-295 2.02 µM | SN12C 2.47 µM
